Several values for one entry are separate records, joined by “and”; a condition that tells them apart may be missing. Identical values can stand only once. Like-named read-outs stand apart in the source and are kept apart here.
Tests used:
[1] = Blood-brain barrier assay of Compound A (plasma and brain concentration, PK); assay type: in vivo, CD-1 mice; conditions: for concentration at 0.083 h / concentration at 0.25 h / concentration at 1 h / concentration at 2 h / concentration at 4 h / concentration at 8 h / Kp at 0.083 h / Kp at 0.25 h / Kp at 1 h / Kp at 2 h / Kp at 4 h / Kp at 8 h / Brain concentration / Plasma concentration / Ratio (Brain/Plasma): IV 1 mg/kg; for MRT inf: read-out: MRTInf_obs; for half-life: read-out: T½ (converted)
Description: Three CD-1 mice were administered 1 mg/kg of the test Compound A intravenously at each time point. Blood and brain tissue were taken at 5 min, 15 min, 1 h, 2 h, 4 h and 8 h after administration.
The PK (Pharmacokinetic) parameters obtained from the above assays were listed as follows, as shown in Table 33 and Table 34. • PK parameters, pharmacokinetic parameters. • T1/2, half-life. • Cl-obs, plasma clearance. • C0, starting concentration. • AUClast, area under the concentration-time curve from start of administration time to the last point. • AUCInf, area under the concentration-time curve from start of administration to the time at infinity. • Tmax, time to maximum observed plasma concentration. • Cmax, concentration to maximum observed plasma concentration. • MRTlnf-obs, represents the mean residence time from the start of administration to the time of theoretical extrapolation to infinity. • AUClnf Ration (Brain/Plasma), the ratio of the area under the concentration-time curve of serum and brain tissue from the start of administration to the time at infinity. • Unit, unit. • Mean, average value.

[2] = system: human lung cancer NCI-H460 cells; experiment: In vivo pharmacodynamics, NCI-H460 subcutaneous xenograft model; design: species or system BALB/c nude mice; conditions: Day 31
Description: BALB/c nude mice were subcutaneously inoculated with human lung cancer NCI-H460 cells to establish a subcutaneous transplantation tumor model of human lung cancer.
The pharmacodynamic analysis of each group in the NCI-H460 CDX model was performed on Day 31 after tumor cell inoculation, and the results were shown in Table 10.

[3] = CD-1, mouse, iv, brain tissues, 1 mg/kg intravenously, Mean
[4] = CD-1, mouse, iv, plasma, 1 mg/kg intravenously, Mean
[5] = 0.083 h, individual animals, 1 mg/kg
[6] = 0.25 h, individual animals, 1 mg/kg
[7] = 1 h, individual animals, 1 mg/kg
[8] = 2 h, individual animals, 1 mg/kg
[9] = 4 h, individual animals, 1 mg/kg
[10] = 8 h, individual animals, 1 mg/kg
[11] = brain tissues, 1 mg/kg intravenously, Mean
[12] = plasma, 1 mg/kg intravenously, Mean

## O=[N+]([O-])c1ccc(C(OP(=O)(N2CC2)N2CC2)C(F)(F)F)cc1Oc1ccc(-c2ccc(F)cc2)c(F)c1 (racemic) [Compound A]
[1]; 1 mg/kg intravenously, within 8 hours
  blood-brain barrier penetration: can effectively penetrate the blood-brain barrier
[1]; CD-1, mouse, brain, iv, 1 mg/kg, 0.083 h, individual animals, read-out: Brain concentration
  concentration at 0.083 h: 538 ng/g
[1]; CD-1, mouse, brain, iv, 1 mg/kg, 0.25 h, individual animals, read-out: Brain concentration
  concentration at 0.25 h: 419 ng/g
[1]; CD-1, mouse, brain, iv, 1 mg/kg, 1 h, individual animals, read-out: Brain concentration
  concentration at 1 h: 180 ng/g
[1]; CD-1, mouse, brain, iv, 1 mg/kg, 2 h, individual animals, read-out: Brain concentration
  concentration at 2 h: 107 ng/g
[1]; CD-1, mouse, brain, iv, 1 mg/kg, 4 h, individual animals, read-out: Brain concentration
  concentration at 4 h: 71.2 ng/g
[1]; CD-1, mouse, brain, iv, 1 mg/kg, 8 h, individual animals, read-out: Brain concentration
  concentration at 8 h: 23.6 ng/g
[1]; CD-1, mouse, brain/plasma, iv, 1 mg/kg, 1 mg/kg intravenously, Mean, read-out: AUCInf Ratio (Brain/Plasma)
  Kp: 0.8
[1]; CD-1, mouse, brain/plasma, iv, 1 mg/kg, 0.083 h, individual animals, read-out: Ratio (Brain/Plasma)
  Kp at 0.083 h: 1.17
[1]; CD-1, mouse, brain/plasma, iv, 1 mg/kg, 0.083 h, mean of 3 animals, read-out: Ratio (Brain/Plasma), Mean
  Kp at 0.083 h: 1.28
[1]; CD-1, mouse, brain/plasma, iv, 1 mg/kg, 0.25 h, individual animals, read-out: Ratio (Brain/Plasma)
  Kp at 0.25 h: 1.13
[1]; CD-1, mouse, brain/plasma, iv, 1 mg/kg, 0.25 h, mean of 3 animals, read-out: Ratio (Brain/Plasma), Mean
  Kp at 0.25 h: 1.15
[1]; CD-1, mouse, brain/plasma, iv, 1 mg/kg, 1 h, individual animals, read-out: Ratio (Brain/Plasma)
  Kp at 1 h: 0.8
[1]; CD-1, mouse, brain/plasma, iv, 1 mg/kg, 1 h, mean of 3 animals, read-out: Ratio (Brain/Plasma), Mean
  Kp at 1 h: 0.76
[1]; CD-1, mouse, brain/plasma, iv, 1 mg/kg, 2 h, individual animals, read-out: Ratio (Brain/Plasma)
  Kp at 2 h: 0.71
[1]; CD-1, mouse, brain/plasma, iv, 1 mg/kg, 2 h, mean of 3 animals, read-out: Ratio (Brain/Plasma), Mean
  Kp at 2 h: 0.67
[1]; CD-1, mouse, brain/plasma, iv, 1 mg/kg, 4 h, individual animals, read-out: Ratio (Brain/Plasma)
  Kp at 4 h: 0.74
[1]; CD-1, mouse, brain/plasma, iv, 1 mg/kg, 4 h, mean of 3 animals, read-out: Ratio (Brain/Plasma), Mean
  Kp at 4 h: 0.78
[1]; CD-1, mouse, brain/plasma, iv, 1 mg/kg, 8 h, individual animals, read-out: Ratio (Brain/Plasma)
  Kp at 8 h: 0.48
[1]; CD-1, mouse, brain/plasma, iv, 1 mg/kg, 8 h, mean of 3 animals, read-out: Ratio (Brain/Plasma), Mean
  Kp at 8 h: 0.52
[1]; [3]
  Cmax: 543 ng/g
  Tmax: 4.8 min
  MRT inf: 2.99 h
  half-life: 2.8 h
[1]; [4]
  AUC(0-inf): 1200 ng·h/mL
  AUC(0-t): 980 ng·h/mL
  C0: 453 ng/mL
  MRT inf: 4.37 h
  half-life: 3.64 h
[1]; CD-1, mouse, plasma, iv, 1 mg/kg, 0.083 h, individual animals, read-out: Plasma concentration
  concentration at 0.083 h: 460 ng/mL
[1]; CD-1, mouse, plasma, iv, 1 mg/kg, 0.25 h, individual animals, read-out: Plasma concentration
  concentration at 0.25 h: 372 ng/mL
[1]; CD-1, mouse, plasma, iv, 1 mg/kg, 1 h, individual animals, read-out: Plasma concentration
  concentration at 1 h: 229 ng/mL
[1]; CD-1, mouse, plasma, iv, 1 mg/kg, 2 h, individual animals, read-out: Plasma concentration
  concentration at 2 h: 150 ng/mL
[1]; CD-1, mouse, plasma, iv, 1 mg/kg, 4 h, individual animals, read-out: Plasma concentration
  concentration at 4 h: 96.4 ng/mL
[1]; CD-1, mouse, plasma, iv, 1 mg/kg, 8 h, individual animals, read-out: Plasma concentration
  concentration at 8 h: 48.8 ng/mL
[1]; [5]
  Brain concentration: 540.75 ng/g and 549.95 ng/g
  Plasma concentration: 400.55 ng/mL and 416.19 ng/mL
  Ratio (Brain/Plasma): 1.35 and 1.32
[1]; [6]
  Brain concentration: 489.60 ng/g and 371.38 ng/g
  Plasma concentration: 382.24 ng/mL and 384.54 ng/mL
  Ratio (Brain/Plasma): 1.35 and 0.97
[1]; [7]
  Brain concentration: 188.68 ng/g and 169.85 ng/g
  Plasma concentration: 238.84 ng/mL and 249.07 ng/mL
  Ratio (Brain/Plasma): 0.79 and 0.68
[1]; [8]
  Brain concentration: 94.27 ng/g and 77.50 ng/g
  Plasma concentration: 134.42 ng/mL and 131.84 ng/mL
  Ratio (Brain/Plasma): 0.70 and 0.59
[1]; [9]
  Brain concentration: 68.47 ng/g and 42.73 ng/g
  Plasma concentration: 74.91 ng/mL and 63.17 ng/mL
  Ratio (Brain/Plasma): 0.91 and 0.88
[1]; [10]
  Brain concentration: 21.85 ng/g and 18.85 ng/g
  Plasma concentration: 49.05 ng/mL and 29.91 ng/mL
  Ratio (Brain/Plasma): 0.45 and 0.83
[1]; [11]
  AUCInf: 872.43 ng·h/g
  AUClast: 785.85 ng·h/g
[1]; [12]
  Cl_obs: 13.85 mL/min/kg
  Vss_obs: 3.63 L/kg
[2]; 10 mg/kg, QWx3, i.v.
  T/C (%): 8.94%
[2]; 10 mg/kg, QWx3, i.v., in mm³ (unit assumed)
  Tumor volume (x ± S): 164.13 ± 34.01
[2]; 15 mg/kg i.v.
  Tumor volume: 125.90 mm^3
[2]; 15 mg/kg, QWx3, i.v.
  Relative tumor volume (x ± S): 0.92 ± 0.22
  TGI (%): 93.06%
